The nature of series [1]: turbidity / appearance of an aqueous solution containing the crystal. In kind it is physicochemical. The conditions noted are these: for turbidity Abs(600 nm): aqueous solution, absorbance 600 nm. Here is the method: (§1) The crystals obtained in the above examples were filled into vials and the residue rate thereof was examined through the acceleration stability test at 40° C. Further, the turbidity of an aqueous solution containing the crystal was determined.
(§2) The monosulfate crystal of compound (I) obtained in Example 9 was filled into vials and the residue rate thereof was examined through the acceleration stability test at 40° C. Further, the turbidity was determined.
(§3) The crystals obtained in Example 10 were filled into vials and the residue rate thereof was examined through the acceleration stability test at 40° C. Further, the turbidity of solutions was determined.

Series [2] is described as follows: acceleration stability test at 40° C. of crystals filled into vials (residue rate, appearance). The conditions noted are these: for appearance (of powder) / residue rate (%): 40° C., vial. Format: physicochemical. Here is the method:
as §1, §2
As a reference compound, used was a lyophilization product of monohydrochloride of compound (I) (non-crystal, KF value: 1.7%, 0.6 H2O) obtained according to the method of Example 6-2 of WO 00/32606.
as §3

Counter-ions that a name gives are not always drawn.

In the case of `CCO/N=C(\C(=O)N[C@@H]1C(=O)N2C(C(=O)[O-])=C(C[n+]3cccc4c3NCN4CCCNC)CS[C@H]12)c1nsc(N)n1` [Example 6(1)], the “turbidity Abs(600 nm)” value was found to be 0.011 in series [1] (after 1 month at 40° C.) and 0.000 in series [1] (initial). Also, the “appearance (of powder)” value in series [2] (1 month) and in series [2] (initial) was “white” throughout. The “residue rate (%)” value turned out to be 99.6% in series [2] (1 month) and 100.0% in series [2] (initial).
For the compound `CCO/N=C(\C(=O)N[C@@H]1C(=O)N2C(C(=O)[O-])=C(C[n+]3cccc4c3NCN4CCCNC)CS[C@H]12)c1nsc(N)n1` [Example 6(2)], the “turbidity Abs(600 nm)” value turned out to be 0.007 in series [1] (after 1 month at 40° C.) and 0.006 in series [1] (initial). Further, the “appearance (of powder)” value in series [2] (1 month) and in series [2] (initial) was “white” each time. Moreover, the results for the “residue rate (%)” value in series [2] (1 month) and in series [2] (initial) were 99.0% and 100.0%, respectively.
For `CCO/N=C(\C(=O)N[C@@H]1C(=O)N2C(C(=O)[O-])=C(C[n+]3cccc4c3NCN4CCCNC)CS[C@H]12)c1nsc(N)n1` [Example 10], in series [1] (after storage at 40° C.), the “turbidity upon being dissolved into water (in words)” value is “turbidity was hardly observed”. Further, the “turbidity Abs(600 nm)” value in series [1] (after 1 month at 40° C.) and in series [1] (initial) was 0.002 in each case. For the same compound, the “residue rate (%)” value in series [2] (1 month) is on record as 98.5%; in series [2] (initial), 100.0%. Further, in series [2] (initial), the “appearance (of powder)” value was “white powder”. The “stability (in words)” value in series [2] (acceleration stability test at 40° C.) was “high stability for a long period”.
Regarding `CCO/N=C(\C(=O)N[C@@H]1C(=O)N2C(C(=O)[O-])=C(C[n+]3cccc4c3ncn4CCCNC)CS[C@H]12)c1nsc(N)n1` [hydrochloride, reference compound], the appearance of solution entry is “Yellow” in series [1] (after 1 month at 40° C.), “Yellow” in series [1] (after 2 month at 40° C.) and “pale” in series [1] (initial). Further, the “turbidity Abs(600 nm)” value in series [1] (after 1 month at 40° C.) amounted to 0.565; in series [1] (after 2 month at 40° C.) it was 1.338; in series [1] (initial), 0.001. The “appearance (of powder)” value in series [2] (1 month), in series [2] (2 month) and in series [2] (initial) was “pale” each time. Also, the figures for the “residue rate (%)” value in series [2] (1 month), in series [2] (2 month) and in series [2] (initial) were 94.8%, 92.9% and 100.0%, respectively.

(Values after patent US20040157821A1, “Sulfate of cephem compound” (priority 2001, published 2004).)
